# Active and inactive are the calls of the source. The calls are words filed in the database; no cut-off is given here.
# Experiments:
# [1] = system: MDA-MB-436; assay: Antiproliferative activity against human MDA-MB-436 cells assessed as cell growth inhibition incubated for 5 days by MTT assay; assay type: functional, cell-based; conditions: MDA-MB-436, 120 h
# [2] = system: CAPAN-1; assay: Antiproliferative activity against human CAPAN-1 cells assessed as cell growth inhibition incubated for 5 days by MTT assay; assay type: functional, cell-based; conditions: CAPAN-1, 120 h
# [3] = system: MDA-MB-468; assay: Antiproliferative activity against human MDA-MB-468 cells assessed as cell growth inhibition incubated for 5 days by MTT assay; assay type: functional, cell-based; conditions: MDA-MB-468, 120 h
# [4] = system: MDA-MB-231; assay: Antiproliferative activity against human MDA-MB-231 cells assessed as cell growth inhibition incubated for 5 days by MTT assay; assay type: functional, cell-based; conditions: MDA-MB-231, 120 h
# [5] = biological target: T1, Protein cereblon/Poly [ADP-ribose] polymerase 1 (Homo sapiens, UniProt P09874+Q96SW2); assay: PROTAC activity at CRBN/PARP1 in human MDA-MB-231 cells assessed as induction of PARP1 degradation at 1 uM incubated for 24 hrs by western blot analysis; assay type: cell-based
# Target sequence in this assay (P09874 2-1014 limits assumed): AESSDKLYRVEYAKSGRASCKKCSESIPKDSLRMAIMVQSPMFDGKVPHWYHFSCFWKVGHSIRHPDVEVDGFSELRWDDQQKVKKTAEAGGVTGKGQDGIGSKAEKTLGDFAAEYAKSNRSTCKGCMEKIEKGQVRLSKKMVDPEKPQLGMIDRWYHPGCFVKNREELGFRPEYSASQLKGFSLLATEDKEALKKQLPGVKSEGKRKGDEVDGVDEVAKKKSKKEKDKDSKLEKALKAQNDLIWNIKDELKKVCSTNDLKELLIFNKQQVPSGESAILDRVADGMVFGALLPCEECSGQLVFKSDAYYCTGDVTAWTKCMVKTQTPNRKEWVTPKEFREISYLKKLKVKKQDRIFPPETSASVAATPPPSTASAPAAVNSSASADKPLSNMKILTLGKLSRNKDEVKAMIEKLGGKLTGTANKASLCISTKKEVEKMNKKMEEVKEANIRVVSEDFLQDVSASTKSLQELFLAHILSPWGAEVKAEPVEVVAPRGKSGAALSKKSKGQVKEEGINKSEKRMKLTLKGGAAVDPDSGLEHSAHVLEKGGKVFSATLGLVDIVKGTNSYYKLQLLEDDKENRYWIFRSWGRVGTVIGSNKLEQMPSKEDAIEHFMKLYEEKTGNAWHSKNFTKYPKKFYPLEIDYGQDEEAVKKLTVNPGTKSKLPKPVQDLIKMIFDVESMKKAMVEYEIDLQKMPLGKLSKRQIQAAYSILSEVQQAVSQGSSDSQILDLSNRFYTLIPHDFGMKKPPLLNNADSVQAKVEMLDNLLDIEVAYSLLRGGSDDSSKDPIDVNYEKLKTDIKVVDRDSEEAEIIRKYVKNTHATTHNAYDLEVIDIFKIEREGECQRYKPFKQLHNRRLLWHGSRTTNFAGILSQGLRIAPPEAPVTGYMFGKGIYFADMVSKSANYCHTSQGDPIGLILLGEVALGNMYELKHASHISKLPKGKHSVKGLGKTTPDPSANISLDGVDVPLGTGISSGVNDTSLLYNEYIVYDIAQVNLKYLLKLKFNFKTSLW
# Target sequence in this assay (Q96SW2 whole entry partner): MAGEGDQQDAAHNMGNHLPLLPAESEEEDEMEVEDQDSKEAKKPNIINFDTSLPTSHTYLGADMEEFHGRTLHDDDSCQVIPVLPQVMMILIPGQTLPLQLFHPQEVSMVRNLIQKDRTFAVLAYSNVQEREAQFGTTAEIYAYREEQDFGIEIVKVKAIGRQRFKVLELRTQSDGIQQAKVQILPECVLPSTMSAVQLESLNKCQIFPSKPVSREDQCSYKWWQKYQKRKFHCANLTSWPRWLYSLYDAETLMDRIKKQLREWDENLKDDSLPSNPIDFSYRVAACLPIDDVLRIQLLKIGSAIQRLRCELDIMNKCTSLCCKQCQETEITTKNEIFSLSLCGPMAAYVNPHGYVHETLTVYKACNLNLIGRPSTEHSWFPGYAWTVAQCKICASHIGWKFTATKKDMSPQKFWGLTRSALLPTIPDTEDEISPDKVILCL
# [6] = biological target: T1, Protein cereblon/Poly [ADP-ribose] polymerase 1; assay: PROTAC activity at CRBN/PARP1 in human MDA-MB-231 cells assessed as induction of PARP1 degradation incubated for 24 hrs by western blot analysis; assay type: cell-based
# Target sequence in this assay (P09874 whole entry): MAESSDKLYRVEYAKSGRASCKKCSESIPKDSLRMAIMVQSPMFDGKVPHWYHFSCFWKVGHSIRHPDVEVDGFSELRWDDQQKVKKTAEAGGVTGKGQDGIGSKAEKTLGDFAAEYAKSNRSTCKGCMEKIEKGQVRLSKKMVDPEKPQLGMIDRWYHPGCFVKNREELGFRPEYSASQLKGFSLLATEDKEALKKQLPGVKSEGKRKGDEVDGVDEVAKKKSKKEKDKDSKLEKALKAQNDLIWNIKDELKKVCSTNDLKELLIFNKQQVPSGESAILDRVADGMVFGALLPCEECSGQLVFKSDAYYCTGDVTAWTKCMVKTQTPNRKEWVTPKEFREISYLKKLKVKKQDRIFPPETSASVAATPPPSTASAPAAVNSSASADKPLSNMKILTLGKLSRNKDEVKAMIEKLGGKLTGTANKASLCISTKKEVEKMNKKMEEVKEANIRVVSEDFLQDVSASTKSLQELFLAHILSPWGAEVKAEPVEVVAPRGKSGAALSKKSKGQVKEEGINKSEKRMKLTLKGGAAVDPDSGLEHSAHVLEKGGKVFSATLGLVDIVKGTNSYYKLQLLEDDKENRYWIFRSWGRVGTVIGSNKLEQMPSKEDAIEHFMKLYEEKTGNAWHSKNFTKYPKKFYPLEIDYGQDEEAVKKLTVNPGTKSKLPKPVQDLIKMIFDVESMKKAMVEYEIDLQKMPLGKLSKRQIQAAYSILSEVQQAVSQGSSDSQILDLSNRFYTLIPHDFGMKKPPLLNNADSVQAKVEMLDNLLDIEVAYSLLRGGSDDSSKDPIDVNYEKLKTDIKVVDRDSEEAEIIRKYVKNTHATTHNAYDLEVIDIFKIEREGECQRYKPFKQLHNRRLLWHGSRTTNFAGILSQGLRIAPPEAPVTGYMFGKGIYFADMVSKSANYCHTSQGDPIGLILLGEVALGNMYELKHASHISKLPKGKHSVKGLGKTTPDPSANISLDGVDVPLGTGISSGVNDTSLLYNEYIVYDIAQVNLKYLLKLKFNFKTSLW
# Target sequence in this assay (Q96SW2 whole entry): as the sequence (Q96SW2 whole entry partner) above
# [7] = biological target: T1, Protein cereblon/Poly [ADP-ribose] polymerase 1; assay: PROTAC activity at CRBN/PARP1 in human MDA-MB-231 cells assessed as induction of PARP1 degradation at 1 uM incubated for 4 hrs by western blot analysis; assay type: cell-based
# Target sequence in this assay (P09874 2-1014 limits assumed): as the sequence (P09874 2-1014 limits assumed) above
# Target sequence in this assay (Q96SW2 whole entry partner): as the sequence (Q96SW2 whole entry partner) above
# [8] = biological target: T1, Protein cereblon/Poly [ADP-ribose] polymerase 1; assay: PROTAC activity at CRBN/PARP1 in human L02 cells assessed as induction of PARP1 degradation incubated for 24 hrs by western blot analysis; assay type: cell-based
# Target sequence in this assay (P09874 whole entry): as the sequence (P09874 whole entry) above
# Target sequence in this assay (Q96SW2 whole entry): as the sequence (Q96SW2 whole entry partner) above
# [9] = biological target: Poly [ADP-ribose] polymerase 1 (Homo sapiens, UniProt P09874); assay: Binding affinity to PARP1 (unknown origin)
# Chain of Poly [ADP-ribose] polymerase 1 (P09874 whole entry): as the sequence (P09874 whole entry) above
# [10] = system: L02; assay: Antiproliferative activity against human L02 cells assessed as cell growth inhibition incubated for 5 days by MTT assay; assay type: toxicity, cell-based; conditions: l02, 120 h, time 5 day
# [11] = system: HeLa; assay: Antiproliferative activity against human HeLa cells assessed as cell growth inhibition incubated for 5 days by MTT assay; assay type: functional, cell-based; conditions: time 5.0 day
# [12] = system: HepG2; assay: Antiproliferative activity against human HepG2 cells assessed as cell growth inhibition incubated for 5 days by MTT assay; assay type: functional, cell-based; conditions: time 5.0 day
# [13] = system: NCI-H2228; assay: Antiproliferative activity against human NCI-H2228 cells assessed as cell growth inhibition incubated for 5 days by MTT assay; assay type: functional, cell-based; conditions: time 5.0 day
# [14] = system: NCI-H3122; assay: Antiproliferative activity against human NCI-H3122 cells assessed as cell growth inhibition incubated for 5 days by MTT assay; assay type: functional, cell-based; conditions: time 5.0 day
# [15] = system: SW620/5-FU; assay: Antiproliferative activity against human SW620/5-FU cells assessed as cell growth inhibition incubated for 5 days by MTT assay; assay type: functional, cell-based; conditions: time 5.0 day
# [16] = system: MV4-11; assay: Antiproliferative activity against human MV4-11 cells assessed as cell growth inhibition incubated for 5 days by MTT assay; assay type: functional, cell-based; conditions: time 5.0 day
# [17] = system: MDA-MB-231; assay: Antiproliferative activity against human MDA-MB-231 cells assessed as colony growth inhibition at 0.625 to 10 uM incubated for 14 days by MTT assay; assay type: functional, cell-based; conditions: dose 0.625-10 µM, time 14.0 day, DDE = dose-dependent effect
# [18] = system: MDA-MB-231; assay: Induction of cell cycle arrest in human MDA-MB-231 cells assessed as accumulation at G0/G1 phase at 0.312 uM incubated for 24 hrs by propidium iodide staining based flow cytometry analysis (reference value: 32.62 %); assay type: functional
# [19] = system: MDA-MB-231; assay: Induction of cell cycle arrest in human MDA-MB-231 cells assessed as accumulation at G2/M phase at 0.312 uM incubated for 24 hrs by propidium iodide staining based flow cytometry analysis (reference value: 27.14 %); assay type: functional
# [20] = system: MDA-MB-231; assay: Induction of cell cycle arrest in human MDA-MB-231 cells assessed as accumulation at S phase at 0.312 uM incubated for 24 hrs by propidium iodide staining based flow cytometry analysis (reference value: 37.88 %); assay type: functional
# [21] = system: MDA-MB-231; assay: Induction of cell cycle arrest in human MDA-MB-231 cells assessed as accumulation at G0/G1 phase at 0.625 uM incubated for 24 hrs by propidium iodide staining based flow cytometry analysis (reference value: 32.62 %); assay type: functional
# [22] = system: MDA-MB-231; assay: Induction of cell cycle arrest in human MDA-MB-231 cells assessed as accumulation at G2/M phase at 0.625 uM incubated for 24 hrs by propidium iodide staining based flow cytometry analysis (reference value: 27.14 %); assay type: functional
# [23] = system: MDA-MB-231; assay: Induction of cell cycle arrest in human MDA-MB-231 cells assessed as accumulation at S phase at 0.625 uM incubated for 24 hrs by propidium iodide staining based flow cytometry analysis (reference value: 37.88 %); assay type: functional
# [24] = system: MDA-MB-231; assay: Induction of cell cycle arrest in human MDA-MB-231 cells assessed as accumulation at G0/G1 phase at 1.25 uM incubated for 24 hrs by propidium iodide staining based flow cytometry analysis (reference value: 32.62 %); assay type: functional
# [25] = system: MDA-MB-231; assay: Induction of cell cycle arrest in human MDA-MB-231 cells assessed as accumulation at G2/M phase at 1.25 uM incubated for 24 hrs by propidium iodide staining based flow cytometry analysis (reference value: 27.14 %); assay type: functional
# [26] = system: MDA-MB-231; assay: Induction of cell cycle arrest in human MDA-MB-231 cells assessed as accumulation at S phase at 1.25 uM incubated for 24 hrs by propidium iodide staining based flow cytometry analysis (reference value: 37.88 %); assay type: functional
# [27] = system: MDA-MB-231; assay: Induction of cell cycle arrest in human MDA-MB-231 cells assessed as accumulation at G0/G1 phase at 2.5 uM incubated for 24 hrs by propidium iodide staining based flow cytometry analysis (reference value: 32.62 %); assay type: functional
# [28] = system: MDA-MB-231; assay: Induction of cell cycle arrest in human MDA-MB-231 cells assessed as accumulation at G2/M phase at 2.5 uM incubated for 24 hrs by propidium iodide staining based flow cytometry analysis (reference value: 27.14 %); assay type: functional
# [29] = system: MDA-MB-231; assay: Induction of cell cycle arrest in human MDA-MB-231 cells assessed as accumulation at S phase at 2.5 uM incubated for 24 hrs by propidium iodide staining based flow cytometry analysis (reference value: 37.88 %); assay type: functional
# [30] = system: MDA-MB-231; assay: Induction of cell cycle arrest in human MDA-MB-231 cells assessed as accumulation at G0/G1 phase at 5 uM incubated for 24 hrs by propidium iodide staining based flow cytometry analysis (reference value: 32.62 %); assay type: functional
# [31] = system: MDA-MB-231; assay: Induction of cell cycle arrest in human MDA-MB-231 cells assessed as accumulation at G2/M phase at 5 uM incubated for 24 hrs by propidium iodide staining based flow cytometry analysis (reference value: 27.14 %); assay type: functional
# [32] = system: MDA-MB-231; assay: Induction of cell cycle arrest in human MDA-MB-231 cells assessed as accumulation at S phase at 5 uM incubated for 24 hrs by propidium iodide staining based flow cytometry analysis (reference value: 37.88 %); assay type: functional
# [33] = system: MDA-MB-231; assay: Induction of cell morphological changes in human MDA-MB-231 at 1 uM incubated for 24 hrs by DAPI and Rhodamine staining based immunofluorescence assay; assay type: functional
structure (smiles),measurement,setting,value
O=C1CCC(N2C(=O)c3cccc(NC(=O)CNCCCCC(=O)N4CCN(C(=O)c5cc(Cc6n[nH]c(=O)c7ccccc67)ccc5F)CC4)c3C2=O)C(=O)N1 (stereo unspecified),IC50,[1],5.82 µM
same,IC50,[2],6.53 µM
same,IC50,[3],> 20 µM
same,IC50,[4],> 20 µM
O=C1CCC(N2C(=O)c3cccc(NC(=O)CNCCCCCCCCCCC(=O)N4CCN(C(=O)c5cc(Cc6n[nH]c(=O)c7ccccc67)ccc5F)CC4)c3C2=O)C(=O)N1 (stereo unspecified),IC50,[1],0.031 µM
same,IC50,[2],0.077 µM
same,IC50,[3],2.32 µM
same,IC50,[4],3.92 µM
same,Activity,[5],Active
same,DC50,[6],0.053 µM
same,Activity,[7],90%
same,DC50,[8],3.2 µM
same,IC50,[9],0.00295 µM
same,Activity,[10],Toxic
same,Activity,[11],Active
same,Activity,[12],Active
same,Activity,[13],Active
same,Activity,[14],Active
same,Activity,[15],Active
same,Activity,[16],Active
same,Activity,[17],Dde
same,Activity,[18],37.11%
same,Activity,[19],28.41%
same,Activity,[20],33.02%
same,Activity,[21],36.68%
same,Activity,[22],29.56%
same,Activity,[23],32.14%
same,Activity,[24],32.03%
same,Activity,[25],35.58%
same,Activity,[26],30.97%
same,Activity,[27],32.48%
same,Activity,[28],37.16%
same,Activity,[29],30.55%
same,Activity,[30],25.81%
same,Activity,[31],41.92%
same,Activity,[32],30.47%
same,Activity,[33],Active
O=C1CCC(N2C(=O)c3cccc(NC(=O)CNCCCCCC(=O)N4CCN(C(=O)c5cc(Cc6n[nH]c(=O)c7ccccc67)ccc5F)CC4)c3C2=O)C(=O)N1 (stereo unspecified),IC50,[1],4.28 µM
same,IC50,[2],4.95 µM
same,IC50,[3],> 20 µM
same,IC50,[4],> 20 µM
O=C1CCC(N2C(=O)c3cccc(NC(=O)CNCCCCCCCCCCCCC(=O)N4CCN(C(=O)c5cc(Cc6n[nH]c(=O)c7ccccc67)ccc5F)CC4)c3C2=O)C(=O)N1 (stereo unspecified),IC50,[1],0.076 µM
same,IC50,[2],0.24 µM
same,IC50,[3],5.03 µM
same,IC50,[4],7.25 µM
O=C(c1cc(Cc2n[nH]c(=O)c3ccccc23)ccc1F)N1CCN(C(=O)C2CC2)CC1 [OLAPARIB],IC50,[1],0.02 µM
same,IC50,[2],0.053 µM
same,IC50,[3],4.19 µM
same,Activity,[18],35.88%
same,Activity,[19],26.17%
same,Activity,[20],46.21%
same,Activity,[21],33.68%
same,Activity,[22],31.86%
same,Activity,[23],33.33%
same,Activity,[24],29.71%
same,Activity,[25],34.71%
same,Activity,[26],33.8%
same,Activity,[27],28.07%
same,Activity,[28],37.91%
same,Activity,[29],38.31%
same,Activity,[30],23.6%
same,Activity,[31],39.58%
same,Activity,[32],37.59%
O=C1CCC(N2C(=O)c3cccc(NC(=O)CNCCC(=O)N4CCN(C(=O)c5cc(Cc6n[nH]c(=O)c7ccccc67)ccc5F)CC4)c3C2=O)C(=O)N1 (stereo unspecified),IC50,[1],> 10 µM
same,IC50,[2],> 10 µM
same,IC50,[3],> 20 µM
same,IC50,[4],> 20 µM
O=C1CCC(N2C(=O)c3cccc(NC(=O)CNCCCC(=O)N4CCN(C(=O)c5cc(Cc6n[nH]c(=O)c7ccccc67)ccc5F)CC4)c3C2=O)C(=O)N1 (stereo unspecified),IC50,[1],6.8 µM
same,IC50,[2],8.64 µM
same,IC50,[3],> 20 µM
same,IC50,[4],> 20 µM

# Source: ChEMBL document CHEMBL5113469, “Synthesis and biological evaluation of a tumor-selective degrader of PARP1” (Bioorg Med Chem, 2022)
